Our source for the IC50 values is patent publication US10208056B2, “Condensed tricyclic compounds as protein kinase inhibitors” (FUNDACIÓN DEL SECTOR PÚBLICO ESTATAL CENTRO NACIONAL DE …, priority 2015, dated 2019).

Assay [1] deals with CDK8/Cyclin C (Homo sapiens (Human), UniProt P49336). Description: CDK8/Cyclin C binding assay (LanthaScreen Eu-Kinase Binding Assay). To be noted: binding assay. Here is the method: The enzyme has been purchase from Invitrogen (PV4402) as a dimer of full-length His-tagged recombinant human proteins.
Assays were performed in 384-well plates. The final read out was generated using an EnVision plate reader (Perkin-Elmer).
(In general: In TR-FRET formats the signal depends on donor and acceptor labels being close together.)

Assay [2] concerns the target Haspin kinase (Homo sapiens (Human), UniProt Q8TF76). Description: Haspin kinase assay (ADP-Glo). It counts as biochemical. The note with it: ATP 150 μM. An excerpt:
The kinase assay relies on ADP-Glo^KM biochemical kinase assay (Promega). This is a luminescent kinase assay that measures ADP formed from a kinase reaction. Then ADP is converted into ATP, which is transformed into a light signal by Ultra-Glo™ Luciferase. The luminescent signal positively correlates with kinase activity. The assay measures the intrinsic ATPase activity (in the absence of peptidic substrate as phosphate acceptor).
The enzyme was purchase from Invitrogen (PV5708) as the kinase domain of GST tagged recombinant human proteins.
Assay conditions were as indicated by the kit manufacturers with the following adaptations: • Assay buffer: 15 mM HEPES pH 7.4, 20 mM NaCl, 1 mM EGTA, 0.02% Tween 20, 10 mM MgCl2, 0.1 mg/ml BGG • Assay volume: 20 μl • Incubation time and temperature: 60 min at 30° C. • Haspin concentration: 20 nM • ATP concentration: 150 μM • Tested compound: Serial 1:3 dilutions • Final DMSO concentration in the assay: 1%
Assays were performed in 384-well plates. The final read out was generated using an EnVision plate reader (Perkin-Elmer). Luminescent relative units are normalized against the control activity included for each compound (i.e., 100% Haspin activity, without compound) and the percentage of inhibition is calculated.
(In ADP-Glo the light output rises with the ADP produced.)

Structures are written as SMILES.

The IC50 is the concentration that gives 50% inhibition. Read a low IC50 as greater potency in that assay.

Sequence of CDK8/Cyclin C (P49336 whole entry): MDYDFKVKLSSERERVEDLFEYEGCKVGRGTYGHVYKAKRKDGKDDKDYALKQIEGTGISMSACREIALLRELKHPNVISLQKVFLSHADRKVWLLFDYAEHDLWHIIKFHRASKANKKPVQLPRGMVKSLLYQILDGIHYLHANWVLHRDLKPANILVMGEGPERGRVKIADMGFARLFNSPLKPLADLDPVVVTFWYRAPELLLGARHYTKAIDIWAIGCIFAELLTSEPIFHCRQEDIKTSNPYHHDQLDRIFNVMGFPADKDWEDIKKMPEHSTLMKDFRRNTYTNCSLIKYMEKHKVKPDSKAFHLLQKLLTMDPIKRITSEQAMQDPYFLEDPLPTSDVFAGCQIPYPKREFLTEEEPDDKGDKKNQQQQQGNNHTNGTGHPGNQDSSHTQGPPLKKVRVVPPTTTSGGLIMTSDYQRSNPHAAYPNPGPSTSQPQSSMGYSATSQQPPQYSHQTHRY
Sequence of CDK8/Cyclin C (P24863 whole entry partner): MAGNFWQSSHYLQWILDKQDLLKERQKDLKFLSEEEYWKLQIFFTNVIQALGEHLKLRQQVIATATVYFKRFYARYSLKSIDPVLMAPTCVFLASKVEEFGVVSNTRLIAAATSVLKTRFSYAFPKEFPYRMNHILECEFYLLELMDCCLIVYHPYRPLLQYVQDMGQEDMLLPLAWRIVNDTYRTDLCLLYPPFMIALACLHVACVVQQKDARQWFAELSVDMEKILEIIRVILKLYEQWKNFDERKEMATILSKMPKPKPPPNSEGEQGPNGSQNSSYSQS
Sequence of Haspin kinase (Q8TF76 484-798): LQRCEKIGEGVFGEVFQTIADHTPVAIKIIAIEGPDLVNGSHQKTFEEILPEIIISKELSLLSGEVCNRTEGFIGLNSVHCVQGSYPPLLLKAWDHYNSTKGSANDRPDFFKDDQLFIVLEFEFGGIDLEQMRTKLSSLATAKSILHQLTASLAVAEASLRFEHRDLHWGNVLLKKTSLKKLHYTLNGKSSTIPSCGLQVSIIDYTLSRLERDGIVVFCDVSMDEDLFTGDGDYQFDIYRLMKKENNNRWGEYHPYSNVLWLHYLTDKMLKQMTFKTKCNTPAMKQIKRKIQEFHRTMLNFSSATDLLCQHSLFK

Turning to `CCn1c(C(N)=O)cc2c1-c1ccncc1O[C@H]2C1CCOCC1` (single isomer, unassigned) [Example 95], the IC50 in assay [1] is under 1.41 nM.

For the compound `CCn1c(C(N)=O)cc2c1-c1ccncc1O[C@@H]2C1CCOCC1` (single isomer, unassigned) [Example 96], the values for the IC50 in assay [1] and in assay [2] were under 1.41 nM and 355 nM, respectively.

For `CC1(C)Oc2cnccc2-c2[nH]c(C(=O)O)cc21` [Example 2], the 50% inhibitory concentration (IC50) in assay [1] stood at 146 nM; in assay [2], 306 nM.

Consider `CC1(C)Oc2cnccc2-c2[nH]c(C(=O)Nc3ccccc3)cc21` [Example 4], for which the IC50 in assay [1] was 5280 nM; in assay [2] it was 7550 nM.

With `CC(C)(C)OC(=O)N1CCC(NC(=O)c2cc3c([nH]2)-c2ccncc2OC3(C)C)CC1` [Example 5], the IC50 is 1870 nM in assay [1] and 18400 nM in assay [2].

As to `CC(C)NC(=O)c1cc2c([nH]1)-c1ccncc1OC2(C)C` [Example 6], the results for the IC50 in assay [1] and in assay [2] were 2410 nM and 1780 nM, respectively.

For the compound `COCCNC(=O)c1cc2c([nH]1)-c1ccncc1OC2(C)C` [Example 7], the results for the IC50 in assay [1] and in assay [2] were 1490 nM and 1020 nM, respectively.

Take `CC1(C)Oc2cnccc2-c2[nH]c(C(=O)NCc3ccccc3)cc21` [Example 8]: the IC50 is 340 nM in assay [1] and 305 nM in assay [2].

For `CCN(CC)C(=O)c1cc2c([nH]1)-c1ccncc1OC2(C)C` [Example 9], the IC50 in assay [1] stood at 979 nM; in assay [2] it was 2350 nM.

For the compound `CC1(C)Oc2cnccc2-c2[nH]c(C(=O)NC3CCNCC3)cc21` [Example 10], the IC50 in assay [1] was determined as 3520 nM; in assay [2], 1730 nM.

Turning to `CC1(C)Oc2cnccc2-c2[nH]c(C(=O)NCCc3ccccc3)cc21` [Example 11], the IC50 in assay [1] is 162 nM; in assay [2], 418 nM.

Regarding `NC(=O)c1cc2c([nH]1)-c1ccncc1OC21CCN(C2CC2)CC1` [Example 16], the IC50 in assay [1] came out at 5700 nM; in assay [2], 4280 nM.

`O=C(O)c1cc2c([nH]1)-c1ccncc1OC21CCN(C2CC2)CC1` [Example 17]: the IC50 stood at 1530 nM in assay [1] and 5960 nM in assay [2].

For the compound `O=C(O)c1cc2c([nH]1)-c1ccncc1OC21CCN(CC(F)(F)F)CC1` [Example 19], the IC50 turned out to be 652 nM in assay [1] and 2950 nM in assay [2].

Regarding `CC1(C)Oc2cnccc2-c2[nH]c(C(=O)N3CCOCC3)cc21` [Example 21], the IC50 in assay [1] was determined as 671 nM; in assay [2], 868 nM.

On to `CC1(C)Oc2cnccc2-c2c1cc(C(=O)O)n2Cc1ccccc1` [Example 24], for which the IC50 in assay [1] amounted to 10000 nM; in assay [2], 20400 nM.

In the case of `CC(C)n1c(C(N)=O)cc2c1-c1ccncc1OC2(C)C` [Example 25], the IC50 in assay [1] is 5870 nM; in assay [2] it was 22300 nM.

As to `CC(C)n1c(C(=O)O)cc2c1-c1ccncc1OC2(C)C` [Example 26], the IC50 in assay [1] was found to be 5940 nM; in assay [2], 49000 nM.

On to `COCCn1c(C(=O)O)cc2c1-c1ccncc1OC2(C)C` [Example 27], for which the values for the IC50 in assay [1] and in assay [2] were 10000 nM and 49900 nM, respectively.

As to `CC1(C)Oc2c(ccnc2Cl)-c2[nH]c(C(N)=O)cc21` [Example 36], the figures for the IC50 in assay [1] and in assay [2] were 559 nM and 292 nM, respectively.

`CC1(C)Oc2c(ccnc2Cl)-c2[nH]c(C(=O)O)cc21` [Example 37]: the IC50 in assay [1] was 6290 nM; in assay [2], 1650 nM.

In the case of `CC1(C)Oc2cnc(Cl)cc2-c2[nH]c(C(N)=O)cc21` [Example 38], the IC50 was 461 nM in assay [1] and 6830 nM in assay [2].

`CC1(C)Oc2cncc(-c3ccccc3)c2-c2[nH]c(C(N)=O)cc21` [Example 39]: the results for the IC50 in assay [1] and in assay [2] were 206 nM and 2330 nM, respectively.

Regarding `CC1(C)Oc2cnccc2-c2[nH]c(C(N)=O)c(-c3cccc(S(N)(=O)=O)c3)c21` [Example 40], the IC50 in assay [1] amounted to 269 nM; in assay [2] it was 254 nM.

Take `CCN1CCC2(CC1)Oc1cnccc1-c1[nH]c(C(N)=O)cc12` [Example 42]: the results for the IC50 in assay [1] and in assay [2] were 197 nM and 153 nM, respectively.

In the case of `CCn1c(C(=O)O)cc2c1-c1ccncc1OC2(C)C` [Example 44], the IC50 is 312 nM in assay [1] and 6730 nM in assay [2].

Regarding `NC(=O)c1cc2c([nH]1)-c1ccncc1OC21CCN(CCC(F)(F)F)CC1` [Example 47], the values for the IC50 in assay [1] and in assay [2] were 120 nM and 466 nM, respectively.

On to `NC(=O)c1cc2c([nH]1)-c1ccncc1OC21CCN(CCCC(F)(F)F)CC1` [Example 48], for which the IC50 in assay [1] stood at 886 nM; in assay [2], 470 nM.

As to `CC1(C2(C)Oc3cnccc3-c3[nH]c(C(N)=O)cc32)COC1` (stereo not drawn) [Example 49], the IC50 in assay [1] is 315 nM; in assay [2] it was 5700 nM.

For the compound `CC1(C)Oc2cnccc2-c2[nH]c(C(N)=O)c(-c3ccc(F)cc3)c21` [Example 50], the IC50 in assay [1] was determined as 581 nM; in assay [2] it was 782 nM.

Regarding `CC1(C)Oc2cnccc2-c2[nH]c(C(N)=O)c(-c3ccccc3O)c21` [Example 64], the IC50 in assay [1] came out at 112 nM; in assay [2], 656 nM.

With `CC1(C)Oc2cnccc2-c2[nH]c(C(N)=O)c(-c3ccccc3C(F)(F)F)c21` [Example 74], the IC50 in assay [1] turned out to be 211 nM; in assay [2], 743 nM.

On to `CC(=O)N1CCC2(CC1)Oc1cnccc1-c1[nH]c(C(N)=O)cc12` [Example 77], for which the IC50 stood at 7.48 nM in assay [1] and 188 nM in assay [2].

`COc1ccccc1-c1c2c(n(CCF)c1C(=O)NCCF)-c1ccncc1OC2(C)C` [Example 78]: the results for the half-inhibitory concentration (IC50) in assay [1] and in assay [2] were 484 nM and 33300 nM, respectively.

As to `COc1cccc(-c2c(C(N)=O)[nH]c3c2C(C)(C)Oc2cnccc2-3)c1` [Example 85], the IC50 in assay [1] amounted to 127 nM; in assay [2], 260 nM.

With `NC(=O)c1cc2c(n1CCF)-c1ccncc1OC21CCOCC1` [Example 92], the values for the IC50 in assay [1] and in assay [2] were under 1.41 nM and 25.6 nM, respectively.

In the case of `CCn1c(C(N)=O)c(C2CC2)c2c1-c1ccncc1OC2(C)C` [Example 94], the IC50 in assay [1] amounted to 2.65 nM; in assay [2], 17.5 nM.

Turning to `CCn1c(C(N)=O)c(Cl)c2c1-c1ccncc1OC21CCOCC1` [Example 104], the IC50 in assay [1] is 2.41 nM; in assay [2], 8.91 nM.

In the case of `CCn1c(C(N)=O)c(Cl)c2c1-c1ccncc1OC21CCCCC1` [Example 105], the results for the IC50 in assay [1] and in assay [2] were under 1.41 nM and 8.82 nM, respectively.

As for `COC(=O)c1[nH]c2c(c1-c1ccccc1)C(C)(C)Oc1cnccc1-2` [LXIX], the IC50 in assay [1] was 2000 nM.

`COC(=O)c1[nH]c2c(c1Br)C(C)(C)Oc1cnccc1-2` [LXVIII] gave an IC50 in assay [1] of 780 nM.

Consider `COC(=O)c1[nH]c2c(c1-c1ccc(S(N)(=O)=O)cc1)C(C)(C)Oc1cnccc1-2` [LXX], for which the half-maximal inhibitory concentration (IC50) in assay [1] was determined as 2850 nM.

With `COC(=O)c1cc2c([nH]1)-c1ccncc1OC2(C)C` [VIII], the IC50 in assay [1] was 677 nM.
